Source: patent US20220119354A1, “DIAMINO-SUBSTITUTED PYRIDINES AND PYRIMIDINES AS HERBICIDES” (FMC Corporation, priority 2019, published 2022)

Assays:
Assay type in all cases: in vivo
[1] = system: ryegrass, Italian (Lolium multiflorum); test: Test A preemergence, Italian ryegrass; settings: 0 to 100 scale, 0 is no effect, 100 is complete control
Source text: (§1) Seeds of plant species selected from barnyardgrass (Echinochloa crus-galli), kochia (Kochia scoparia), ragweed (common ragweed, Ambrosia elatior), ryegrass, Italian (Lolium multiflorum), foxtail, giant (Setaria faberii), foxtail, green (Setaria viridis), and pigweed (Amaranthus retroflexus) were planted into a blend of loam soil and sand and treated preemergence with a directed soil spray using test chemicals formulated in a non-phytotoxic solvent mixture which included a surfactant.
(§2) At the same time, plants selected from these weed species and also wheat (Triticum aestivum), corn (Zea mays), blackgrass (Alopecurus myosuroides), and galium (catchweed bedstraw, Galium aparine) were planted in pots containing the same blend of loam soil and sand and treated with postemergence applications of test chemicals formulated in the same manner. Plants ranged in height from 2 to 10 cm and were in the one- to two-leaf stage for the postemergence treatment. Treated plants and untreated controls were maintained in a greenhouse for approximately 10 d, after which time all treated plants were compared to untreated controls and visually evaluated for injury. Plant response ratings, summarized in Table A, are based on a 0 to 100 scale where 0 is no effect and 100 is complete control. A dash (-) response means no test result.

[2] = system: pigweed (Amaranthus retroflexus); test: Test A postemergence, pigweed; settings: 0 to 100 scale; for Plant response rating, Pigweed: 0 no effect, 100 complete control
Source text: as §1, §2

[3] = system: ryegrass, Italian (Lolium multiflorum); test: Test A postemergence, Italian ryegrass; settings: 0 to 100 scale; for Plant response rating, Ryegrass, Italian: 0 no effect, 100 complete control
Source text: as §1, §2

[4] = system: foxtail, giant (Setaria faberii); test: Test A postemergence, giant foxtail; settings: 0 to 100 scale; for Plant response rating, Foxtail, Giant: 0 no effect, 100 complete control
Source text: as §1, §2

[5] = system: barnyardgrass (Echinochloa crus-galli); test: Test A postemergence, barnyardgrass; settings: 0 to 100 scale; for Plant response rating, Barnyardgrass: 0 no effect, 100 complete control
Source text: as §1, §2

[6] = system: galium (catchweed bedstraw, Galium aparine); test: Test A postemergence, galium; settings: 0 to 100 scale; for Plant response rating, Galium: 0 no effect, 100 complete control
Source text: as §1, §2

[7] = system: barnyardgrass (Echinochloa crus-galli); test: Test A preemergence, barnyardgrass; settings: 0 to 100 scale, 0 is no effect, 100 is complete control
Source text: as §1, §2

[8] = system: wheat (Triticum aestivum); test: Test A postemergence, wheat; settings: 0 to 100 scale; for Plant response rating, Wheat: 0 no effect, 100 complete control
Source text: as §1, §2

[9] = system: blackgrass (Alopecurus myosuroides); test: Test A postemergence, blackgrass; settings: 0 to 100 scale; for Plant response rating, Blackgrass: 0 no effect, 100 complete control
Source text: as §1, §2

kochia (Kochia scoparia) [10] = test: Test A postemergence, kochia; settings: 0 to 100 scale; for Plant response rating, Kochia: 0 no effect, 100 complete control
Source text: as §1, §2

corn (Zea mays) = test: Test A postemergence, corn; settings: 0 to 100 scale; for Plant response rating, Corn: 0 no effect, 100 complete control
Source text: as §1, §2

[11] = system: ragweed (common ragweed, Ambrosia elatior); test: Test A postemergence, ragweed; settings: 0 to 100 scale; for Plant response rating, Ragweed: 0 no effect, 100 complete control
Source text: as §1, §2

[12] = system: ragweed (common ragweed, Ambrosia elatior); test: Test A preemergence, ragweed; settings: 0 to 100 scale, 0 is no effect, 100 is complete control
Source text: as §1, §2

[13] = system: foxtail, giant (Setaria faberii); test: Test A preemergence, giant foxtail; settings: 0 to 100 scale, 0 is no effect, 100 is complete control
Source text: as §1, §2

kochia (Kochia scoparia) [14] = test: Test A preemergence, kochia; settings: 0 to 100 scale, 0 is no effect, 100 is complete control
Source text: as §1, §2

[15] = system: pigweed (Amaranthus retroflexus); test: Test A preemergence, pigweed; settings: 0 to 100 scale, 0 is no effect, 100 is complete control
Source text: as §1, §2

[16] = 1000 g ai/ha, 0 is no effect, 100 is complete control

| Compound | Ryegrass, Italian plant response rating ([1]; 125 g ai/ha) | Ryegrass, Italian plant response rating ([1]; 500 g ai/ha) | Plant response rating, Pigweed ([2]; 125 g ai/ha) | Plant response rating, Pigweed ([2]; 500 g ai/ha) | Plant response rating, Ryegrass, Italian ([3]; 125 g ai/ha) | Plant response rating, Ryegrass, Italian ([3]; 500 g ai/ha) | Plant response rating, Foxtail, Giant ([4]; 125 g ai/ha) | Plant response rating, Foxtail, Giant ([4]; 500 g ai/ha) | Plant response rating, Barnyardgrass ([5]; 125 g ai/ha) | Plant response rating, Barnyardgrass ([5]; 500 g ai/ha) | Plant response rating, Galium ([6]; 125 g ai/ha) | Plant response rating, Galium ([6]; 500 g ai/ha) | Barnyardgrass plant response rating ([7]; 125 g ai/ha) | Barnyardgrass plant response rating ([7]; 500 g ai/ha) | Plant response rating, Wheat ([8]; 125 g ai/ha) | Plant response rating, Wheat ([8]; 500 g ai/ha) | Plant response rating, Blackgrass ([9]; 125 g ai/ha) | Plant response rating, Blackgrass ([9]; 500 g ai/ha) | Plant response rating, Kochia (kochia (Kochia scoparia) [10]; 125 g ai/ha) | Plant response rating, Kochia (kochia (Kochia scoparia) [10]; 500 g ai/ha) | other results |
| --- | --- | --- | --- | --- | --- | --- | --- | --- | --- | --- | --- | --- | --- | --- | --- | --- | --- | --- | --- | --- | --- |
| C[C@@H](Nc1nc(N)cc(C(F)(F)F)n1)c1cc2ccccc2s1 [Compound 97] | – | – | – | – | – | – | – | – | – | – | – | – | – | – | – | – | – | – | – | – | Ryegrass, Italian plant response rating ([1]; 1000 g ai/ha): 0; Pigweed plant response rating [2, 16]: 0; Ryegrass, Italian plant response rating [3, 16]: 0; Foxtail, Giant plant response rating [4, 16]: 0; Barnyardgrass plant response rating [5, 16]: 0; Galium plant response rating [6, 16]: 20; Barnyardgrass plant response rating ([7]; 1000 g ai/ha): 0; Wheat plant response rating [8, 16]: 0; Blackgrass plant response rating [9, 16]: 0; Kochia plant response rating (kochia (Kochia scoparia) [10]; [16]): 20; Corn plant response rating (corn (Zea mays); [16]): 0; Ragweed plant response rating [11, 16]: 0; Ragweed plant response rating ([12]; 1000 g ai/ha): 0; Foxtail, Giant plant response rating ([13]; 1000 g ai/ha): 0; Kochia plant response rating (kochia (Kochia scoparia) [14]; 1000 g ai/ha): 0; Pigweed plant response rating ([15]; 1000 g ai/ha): 0 |
| Cc1cccc2oc(C(C)Nc3ncc(C(F)(F)F)c(N)n3)cc12 (centres unmarked) [Compound 101] | 30 | 90 | 100 | 100 | 60 | 70 | 10 | 100 | 30 | 100 | 80 | 90 | 90 | 90 | 0 | 40 | 20 | 70 | 70 | 100 | Plant response rating, Corn (corn (Zea mays); 125 g ai/ha): 0; Plant response rating, Corn (corn (Zea mays); 500 g ai/ha): 40; Plant response rating, Ragweed ([11]; 125 g ai/ha): 30; Plant response rating, Ragweed ([11]; 500 g ai/ha): 100; Ragweed plant response rating ([12]; 125 g ai/ha): 70; Ragweed plant response rating ([12]; 500 g ai/ha): 100; Foxtail, Giant plant response rating ([13]; 125 g ai/ha): 100; Foxtail, Giant plant response rating ([13]; 500 g ai/ha): 100; Kochia plant response rating (kochia (Kochia scoparia) [14]; 125 g ai/ha): 90; Kochia plant response rating (kochia (Kochia scoparia) [14]; 500 g ai/ha): 90; Pigweed plant response rating ([15]; 125 g ai/ha): 70; Pigweed plant response rating ([15]; 500 g ai/ha): 100 |
| CC(Nc1ncc(C(F)(F)F)c(N)n1)c1cc2c(Br)cccc2o1 (centres unmarked) [Compound 102] | 30 | 60 | 100 | 100 | 0 | 30 | 0 | 20 | 10 | 70 | 100 | 100 | 30 | 80 | 0 | 40 | 0 | 40 | 70 | 90 | Plant response rating, Corn (corn (Zea mays); 125 g ai/ha): 0; Plant response rating, Corn (corn (Zea mays); 500 g ai/ha): 20; Plant response rating, Ragweed ([11]; 125 g ai/ha): 30; Plant response rating, Ragweed ([11]; 500 g ai/ha): 100; Ragweed plant response rating ([12]; 125 g ai/ha): 50; Ragweed plant response rating ([12]; 500 g ai/ha): 80; Foxtail, Giant plant response rating ([13]; 125 g ai/ha): 80; Foxtail, Giant plant response rating ([13]; 500 g ai/ha): 100; Kochia plant response rating (kochia (Kochia scoparia) [14]; 125 g ai/ha): 70; Kochia plant response rating (kochia (Kochia scoparia) [14]; 500 g ai/ha): 90; Pigweed plant response rating ([15]; 125 g ai/ha): 100; Pigweed plant response rating ([15]; 500 g ai/ha): 100 |
